Measurements: US8809234B1, “Drift reduction compositions for agricultural use” (AgQuam LLC, priority 2011, dated 2014)

Experiments:
Assay type in all cases: in vivo
Details in all cases: Glyphosate 0.375 lb/acre; AMS 17 lb/100 gal, NIS, AQ 284 or AQ 268 […] v/v, INTERLOCK 4 fl oz/acre
Corn, Sunflower, Wheat = experiment: Greenhouse study for weed control, average of species
Protocol: (§1) A greenhouse study was conducted to test the efficacy of the AQ 284 combination water conditioning adjuvant and drift reduction composition compared to the commercial standard (INTERLOCK). Greenhouse research was conducted with individual plants growing in 3×3×3 inch pots. Greenhouse treatments were applied with a track sprayer using an 8002 E single nozzle applying 20 gpa.

Corn = experiment: Greenhouse study for weed control, corn
Protocol: as §1

Sunflower = experiment: Greenhouse study for weed control, sunflower
Protocol: as §1

Wheat = experiment: Greenhouse study for weed control, wheat
Protocol: as §1

With `O=C(O)CNCP(=O)(O)O` [Glyphosate, N-(phosphonomethyl)glycine] the “Average % Control 18 Days After Application” value (Corn, Sunflower, Wheat) was 13.3%, the “Corn % Control 18 Days After Application” value (Corn) was 10.0% and the “Sunflower % Control 18 Days After Application” value (Sunflower) was 15.0%. The “Wheat % Control 18 Days After Application” value (Wheat) was 15.0%.
